Test results reported in patent publication US8877758B2, “Combinations of medicaments, containing PDE4-inhibitors and EP4-receptor-antagonists” (Boehringer Ingelheim International GmbH, priority 2010, dated 2014).
“Also recorded” adds a separate entry of the source.

Legend:
[1] = tested on: male Wistar rats; assay: Experiment 4: four-day oral treatment of rats, roflumilast-mediated effects with or without AH-6809; type: in vivo, rat
Procedure: group 2 (“AH-6809 group”): Six male Wistar rats were given a daily dosage of 10 mg/kg AH-6809 (preferential EP2 antagonist) at 1300 hours.

[2] = tested on: male Wistar rats; assay: Experiment 2: four-day oral treatment of rats, roflumilast-mediated effects with or without SC-560 or Lumiracoxib; type: in vivo, rat
Source text: For pharmacokinetic analysis (determining plasma levels of the substances) one rat from each group was used on day 4; these rats were no longer available for the investigation of other parameters.

[3] = tested on: male Wistar rats; assay: Experiment 3: four-day oral treatment of rats, roflumilast-mediated effects with or without MF-498; type: in vivo, rat; conditions: 20 mg/kg MF-498 p.o. at 1300 hours, four days, no roflumilast
Procedure: group 2 (“MF-498 group”): Six male Wistar rats were given a daily dosage of 20 mg/kg MF-498 (EP4 antagonist) in each case at 1300 hours.

[4] = tested on: male Wistar rats; assay: as above; type: in vivo, rat
[5] = tested on: male Wistar rats; assay: Experiment 1: four-day oral treatment of rats, roflumilast-mediated effects with or without diclofenac
Procedure: Six male Wistar rats in each group were treated for four days with the following substances (all substances are given p.o.=orally):
Group 1 (“control group”): Six male Wistar rats were given a daily dose of 0.5% Natrosol (placebo) at the times 0800, 1300 and 1700 hours.
Group 2 (“diclofenac group”): Six male Wistar rats were given a daily dose of 1 mg/kg of diclofenac (NSAID) at the times 0800 and 1700 hours and 0.5% Natrosol (placebo) at 1300 hours.
Group 3 (“roflumilast group”): Six male Wistar rats were given a daily dose of 0.5% Natrosol (placebo) at 0800 and 1700 hours and 10 mg/kg roflumilast (PDE4 inhibitor) at 1300 hours.
Group 4 (“roflumilast+diclofenac group”): Six male Wistar rats were given a daily dose of 1 mg/kg diclofenac (NSAID) at the times 0800 and 1700 hours and 10 mg/kg roflumilast (PDE4 inhibitor) at 1300 hours.
For pharmacokinetic analysis (determining the plasma levels of the substances) on day 4 one rat from each group was used; these rats were no longer available for other parameters under investigation.
During the experiment the body weights of the animals were determined and the differences in the body weights of the rats from the different groups towards the end of the experiment were shown as a percentage change from the time of the first administration (=day 1, 0800 hours (=time t0)). The average±standard deviation of the body weights at time t0 was 355±17 g.
At the end of the experiment (day 5, 95 hours after t0 (t0=the time of the first administration on day 1, 0800)) the proportion of neutrophils (in % of white blood cells, FIG. 2) were determined from the blood of 4 or 5 of the rats from the individual groups. In addition, the weights of the animals' spleens were measured and the mesenteries were dissected for histopathological investigation for vasculitis (multifocal perivascular mononuclear/polymorphonuclear infiltration).

[6] = AH-6809 and 10 mg/kg Roflumilast p.o. at 1300 hours, four days
[7] = 2 mg/kg p.o. at 0800 and 1700 hours + 10 mg/kg Roflumilast at 1300 hours, four days
[8] = 20 mg/kg MF-498 and 10 mg/kg Roflumilast p.o. at 1300 hours, four days
[9] = 10 mg/kg Roflumilast p.o. at 1300 hours for four days, read-out day 5, 95 hours after t0
[10] = 1 mg/kg diclofenac p.o. at 0800 and 1700 hours + 10 mg/kg roflumilast at 1300 hours, four days

SMILES: CC(C)Oc1ccc2c(=O)c3cc(C(=O)O)ccc3oc2c1 [AH6809, 6-isopropoxy-9-oxoxanthene-2-carboxylic acid]
- parameters measured after administration on its own (body weight, spleen weight, neutrophils, mesenteric vasculitis) ([1]; 10 mg/kg AH-6809 p.o. at 1300 hours, four days, no roflumilast): very similar to the control group
- influence of co-administration on roflumilast-mediated loss of body weight (FIG. 13) [1, 6]: no indications that the EP2 preferential receptor antagonist AH-809 had any influence
- influence of co-administration on roflumilast-mediated loss of spleen weight (FIG. 14) [1, 6]: no indications that the EP2 preferential receptor antagonist AH-809 had any influence
- influence of co-administration on roflumilast-mediated mesenteric vasculitis (monocyte/polymorphonuclear perivascular infiltration, FIG. 16) [1, 6]: no indications that the EP2 preferential receptor antagonist AH-809 had any influence
- influence of co-administration on roflumilast-mediated neutrophilia (FIG. 15) [1, 6]: no indications that the EP2 preferential receptor antagonist AH-809 had any influence

SMILES: Cc1ccc(Nc2c(F)cccc2Cl)c(CC(=O)O)c1 [Lumiracoxib]
- effect of co-administration on roflumilast-mediated loss of body weight (FIG. 5) [2, 7]: substantially reduced or prevented
- effect of co-administration on roflumilast-mediated loss of spleen weight (FIG. 6) [2, 7]: substantially reduced or prevented
- effect of co-administration on roflumilast-mediated mesenteric vasculitis (monocyte/polymorphonuclear perivascular infiltration, FIG. 8) [2, 7]: substantially reduced or prevented
- effect of co-administration on roflumilast-mediated neutrophilia (FIG. 7) [2, 7]: substantially reduced or prevented
- parameters measured after administration on its own (body weight, spleen weight, neutrophils, mesenteric vasculitis) ([2]; 2 mg/kg p.o. at 0800 and 1700 hours, four days, no roflumilast): very similar to the control groups

SMILES: CCOc1c2c(c(OCC)c3ncccc13)CN(c1ccc(CS(=O)(=O)NC(=O)Cc3ccccc3OC)cc1C)C2=O [MF-498, N-{[4-(5,9-diethoxy-6-oxo-6,8-dihydro-7H-pyrrolo(3,4-g)quinolin-7-yl)-3-methylbenzyl)sulphonyl}-2-(2-methoxyphenyl)acetamide]
- parameters measured after administration on its own (body weight, spleen weight, neutrophils, mesenteric vasculitis) [3]: very similar to the control group
- effect of co-administration on roflumilast-mediated loss of body weight (FIG. 9) [4, 8]: substantially reduced
- effect of co-administration on roflumilast-mediated loss of spleen weight (FIG. 10) [4, 8]: substantially reduced
- effect of co-administration on roflumilast-mediated mesenteric vasculitis (monocyte/polymorphonuclear perivascular infiltration, FIG. 12) [4, 8]: substantially reduced
- effect of co-administration on roflumilast-mediated neutrophilia (FIG. 11) [4, 8]: substantially reduced
- differences in the weight of the spleen between the Roflumilast group and the Roflumilast+MF-498 group (statistics) ([4]; 20 mg/kg MF-498 and 10 mg/kg Roflumilast p.o., one animal of the Roflumilast group had an unusually small loss of spleen weight): do not achieve statistical significance

SMILES: O=C(Nc1c(Cl)cncc1Cl)c1ccc(OC(F)F)c(OCC2CC2)c1 [Roflumilast]
- PDE4 inhibitor-mediated side effects observed in the Roflumilast group [2, 9]: loss of body weight; also recorded: loss of spleen weight; also recorded: neutrophilia; also recorded: mesenteric vasculitis
- PDE4 inhibitor-mediated side effects observed in the Roflumilast group [1, 9]: loss of body weight; also recorded: loss of spleen weight; also recorded: neutrophilia; also recorded: mesenteric vasculitis
- PDE4 inhibitor-mediated side effects observed in the Roflumilast group [4, 9]: loss of body weight; also recorded: loss of spleen weight; also recorded: neutrophilia; also recorded: mesenteric vasculitis
- death of animals in the roflumilast group ([5]; 10 mg/kg roflumilast p.o. daily, six rats per group): died between day 4 and day 5

SMILES: O=C(O)Cc1ccccc1Nc1c(Cl)cccc1Cl [diclofenac]
- effect of co-administration on roflumilast-mediated loss of body weight (FIG. 1) [5, 10]: substantially reduced or prevented
- effect of co-administration on roflumilast-mediated loss of spleen weight (FIG. 2) [5, 10]: substantially reduced or prevented
- effect of co-administration on roflumilast-mediated mesenteric vasculitis (monocyte/polymorphonuclear infiltration into the mesentery, FIG. 4) [5, 10]: substantially reduced or prevented
- effect of co-administration on roflumilast-mediated neutrophilia (FIG. 3) [5, 10]: substantially reduced or prevented
- parameters measured after administration on its own (body weight, spleen weight, neutrophils, mesenteric vasculitis) ([5]; 1 mg/kg diclofenac p.o. at 0800 and 1700 hours, four days, no roflumilast): very similar to the control groups
